From patent publication US8859599B2, “Androgen receptor modulating compounds, preparation and uses thereof” (priority 2009, dated 2014)

Columns and labels:
[1] = tested on: normal stem cells derived from human peripheral blood stem cells; test: Colony-forming cell assay (GM-CFU); assay type: cell-based; conditions: highest concentration tested, 14 days incubation
Protocol: The colony-forming cell assay was used as previously described [Motta M R et al., Exp Hematol 1997; 25:1261-1269]. In brief, for each molecule, 5×10^4 cells were plated in duplicate in a complete culture medium (MethoCult H4434, StemCell Technologies, Vancouver, Canada) containing different concentrations (0.2, 2, and 20 μmol/l) of the compound. After 14 days of incubation in a humidified atmosphere of 5% CO2 at the temperature of 37° C., granulocyte macrophage colony-forming unit (GM-CFU) aggregates of more than 50 cells were counted. Control cells were incubated under the same conditions but in drug-free medium.
The authors also evaluated the potential toxicity of some of the novel compounds in normal cells as the ability of the drugs to inhibit clonogenic growth of normal stem cells derived from human peripheral blood stem cells (FIG. 37). The exposure of hematopoietic precursor to the compounds, caused low ((S)-37) or negligible (, (R)-22, (R)-23, (R)-10) toxicity at the highest concentration tested.

DU145 = test: SRB cytotoxicity on DU145 cells; assay type: cell-based, human; conditions: DU145 cells (no AR), 144 h exposure
Protocol: (§1) Finally, compounds were also tested on HepG2 cells, originally isolated from a primary hepatoblastoma of a child, purchased from ATCC.
(§2) Sulforhodamine B (SRB) assay was used according to the method by Skehan et al. (JNCI, 1990). Briefly, cells were collected by trypsinization, counted and plated at a density of 5,000 cells/well in 96-well flat-bottomed microtiter plates (100 μl of cell suspension/well). In the chemosensitivity assay, experiments were run in octuplicate, and each experiment was repeated three times. The optical density (OD) of cells was determined at a wavelength of 490 nm by a colorimetric plate reader.
(§3) Growth inhibition and cytocidal effect of drugs were calculated according to the formula reported by Monks et al. (JNCI, 1991): [(ODtreated−ODzero)/(ODcontrol−ODzero)]×100%, when ODtreated is > to ODzero. If ODtreated is above ODzero, treatment has induced a cytostatic effect, whereas if ODtreated is below ODzero, cell killing has occurred. The ODzero depicts the cell number at the moment of drug addition, the ODcontrol reflects the cell number in untreated wells and the ODtreated reflects the cell number in treated wells on the day of the assay. TUNEL Assay
(§4) The authors tested the antitumour activity of the compounds also on PC-3 and DU145 cancer cell lines, representative of hormone-refractory prostate cancer due to AR receptor absence.

LNCaP-AR cells = test: TUNEL assay of apoptotic cells in LNCaP-AR; assay type: cell-based, human; conditions: 20.0 μM; for Apoptotic cells (%): LNCaP-AR, 144-h exposure, TUNEL
HepG2 cells = test: Cytotoxic activity on hepatoblastoma cell line HepG2; assay type: cell-based, human; conditions: up to highest concentration tested
Protocol: as §1, §2, §3
(§5) The authors evaluated in vitro the potential hepato-toxicity of some of the novel compounds on HepG2 cell line, a human hepatoblastoma cell line that retains the specialized function of normal hepatocytes [Knowles B B, et al., Science 1980, 209:497-499; Aden D P, et al., Nature, 1979, 282:615-616].

PC-3 = test: SRB cytotoxicity on PC-3 cells; assay type: cell-based, human; conditions: PC-3 cells (no AR), 144 h exposure
Protocol: as §1, §2, §3, §4

LNCaP cells [2] = test: Sulforhodamine B (SRB) in vitro chemosensitivity assay on LNCaP cells; assay type: cell-based; conditions: for GI50 / LC50: Homo sapiens, LNCaP, 144 h; for GI50: read-out: Growth inhibition (GI50), LNCaP cells, 144 h exposure; for LC50: read-out: cytocidal effects by 50% (LC50), LNCaP cells, 144 h exposure, n.r. = not reached; for cytocidal (cell killing) activity: LNCaP cells, 144 h exposure
Protocol: as §2, §3
The authors examined the antitumour activity of the compounds for which the synthesis is described above, in the hormone-sensitive prostate cancer cell line LNCaP. (R)-Bicalutamide and the novel compounds were tested at the increasing concentrations of […]. The highest dose used was chosen on the basis of the clinically achievable peak plasma concentration reported in the literature for bicalutamide (Cockshott I D. Clin Pharmacokinet. 2004; 43 (13) 855-78).
After 144-hr exposure time, the cytotoxic effect of the molecules was calculated according to the method of Monks et al. (Monks A, et al., J. Nat. Cancer Inst. 1991; 83: 757-66).

LNCaP cells [3] = test: TUNEL assay of apoptotic cells in LNCaP; assay type: cell-based, human; conditions: 144-h exposure, 20.0 μM
Protocol: Cells were fixed in 1% paraformaldehyde in PBS on ice for 15 min, suspended in ice cold ethanol (70%) and stored overnight at −20° C. Cells were then washed twice in PBS and resuspended in PBS containing 0.1% Triton X-100 for 5 min at 4° C. Thereafter, samples were incubated in 50 μl of solution containing TdT and FITC-conjugated dUTP deoxynucleotides 1:1 (Roche Diagnostic GmbH, Mannheim, Germany) in a humidified atmosphere for 90 min at 37° C. in the dark, washed in PBS, counterstained with propidium iodide (2.5 μg/ml, MP Biomedicals, Verona, Italy) and RNAse (10 Kunits/ml, Sigma Aldrich, Milan, Italy) for 30 min at 4° C. in the dark and analyzed by flow cytometry.
After the end of drug exposures, medium was removed and cells were detached from the flasks by trypsin treatment, washed twice with PBS and stained according to the different methods specified below. Flow cytometric analysis was performed using a FACS Canto flow cytometer (Becton Dickinson, San Diego, Calif.). Data acquisition and analysis were performed using FACSDiva software (Becton Dickinson). Samples were run in triplicate and 10,000 events were collected for each replica. Data were the average of three experiments, with errors under 5%.
The cells, before TUNEL assay, were continuously exposed to the anti-androgen compounds for 144 hours at the concentration of 20.0 μM.

[4] = Cytotoxic activity on hepatoblastoma cell line HepG2; assay type: cell-based, human; conditions: human, HepG2 cells
Protocol: as §1, §2, §3, §5

| Compound | toxicity: inhibition of clonogenic growth of hematopoietic precursors [1] | cytotoxic properties compared to effects on LNCaP and LNCaP-AR cells (DU145) | apoptosis induction in the LNCaP derivative cell line versus LNCaP (LNCaP-AR cells; 144 h) | Apoptotic cells (%) (LNCaP-AR cells) | potential hepato-toxicity (HepG2 cells) | cytotoxic properties compared to effects on LNCaP and LNCaP-AR cells (PC-3) | GI50 (LNCaP cells [2]) [µM] | LC50 (LNCaP cells [2]) [µM] | cytocidal (cell killing) activity (LNCaP cells [2]) | Apoptotic cells (%) (LNCaP cells [3]) | GI50 [4] [µM] | LC50 (concentration killing 50% of cells) [4] [µM] |
| --- | --- | --- | --- | --- | --- | --- | --- | --- | --- | --- | --- | --- |
| CS(=O)(=O)N[C@@](Cc1ccccc1)(CS(=O)(=O)c1ccc(F)cc1)C(=O)Nc1ccc(C#N)c(C(F)(F)F)c1 [(R)-10, (R)-2-benzyl-N-(4-cyano-3-(trifluoromethyl)phenyl)-3-(4-fluorophenylsulfonyl)-2-(methylsulfonamido)propanamide] | negligible | significant reduction in their cytotoxic proprieties | more active | 42.7 | negligible toxicity | significant reduction in their cytotoxic proprieties | 7.4 | 17.7 | cytocidal activity | 35.5 | – | – |
| N#Cc1ccc(N2C(=O)[C@](Cc3ccc(F)cc3)(c3ccccc3)NC2=S)cc1C(F)(F)F [(S)-37] | low | significant reduction in their cytotoxic proprieties | – | 89.5 | significant toxicity | significant reduction in their cytotoxic proprieties | 5.8 | 16.8 | cytocidal activity | 93.4 | 7.4 | 17.7 |
